In patent US12188936B2, “Biomarkers and therapeutics for endocrine therapy resistance” (LUNELLA BIOTECH, INC., priority 2018, dated 2025):

How the values were obtained:
MCF7-Y537S cells [1] = assay: SRB survival assay (cell viability), 5-day exposure; format: cell-based, human; conditions: 4-OHT 1 μM, 5 days, vs control
Excerpt: For FIG. 1, ** indicates p<0.005.

MCF7-Y537S cells [2] = assay: Mammosphere formation assay; format: cell-based, human; conditions: 72-hour pre-treatment with 1 μM, 5 days culture
Procedure: (§1) All of the transfected MCF7 cell lines were grown as mammospheres. […] In these figures, ** indicates p<0.005; and ns indicates not significant as evaluated by Student's t test.
(§2) MCF7 3D-mammosphere formation: A single cell suspension was prepared using enzymatic (lx Trypsin-EDTA, Sigma Aldrich, #T3924), and manual disaggregation (25 gauge needle). Cells were plated at a density of 500 cells/cm^2 in mammosphere medium (DMEM-F12+B27+20 ng/ml EGF+PenStrep) under non-adherent conditions, in culture dishes pre-coated with (2-hydroxyethylmethacrylate) (poly-HEMA, Sigma, #P3932), called “mammosphere plates.” Then, the cells were pre-treated for 72 hours with 1 μM of 4-OH-Tamoxifen. Vehicle alone (DMSO) control cells were processed in parallel. Afterwards, they were trypsined and seeded in mammosphere plates. Cells were grown for 5 days and maintained in a humidified incubator at 37° C. After 5 days of culture, 3D-spheres>50 μm were counted using an eye piece (“graticule”), and the percentage of cells plated which formed spheres was calculated and is referred to as percent mammosphere formation, and was normalized to one (1=100% MSF).

[3] = system: transfected MCF7 cell lines (other than Y537S and ESR1 WT); assay: Mammosphere formation assay; format: cell-based, human; conditions: all transfected MCF7 cell lines except Y537S and ESR1 (WT), 72-hour pre-treatment with 1 μM, 5 days culture
Procedure: as §1, §2

MCF7-Y537S cells [4] = assay: Annexin-V analysis (apoptosis, FACS); format: cell-based, human; conditions: 1 μM for 72 hours
Excerpt: (§3) One mechanism by which the Y537S mutation may promote mammosphere formation in the presence of Tamoxifen is by conferring resistance to apoptosis. Staining with annexin V may be used to detect apoptotic cells by its ability to bind to phosphatidylserine, a marker of apoptosis when it is on the outer leaflet of the plasma membrane. Increases in annexin V staining indicates an increase in apoptosis.
(§4) The data in FIGS. 4A-4C were obtained as follows. The transduced MCF7 cell lines were all plated in 6-well plates. On the next day, the cells were treated with 4-OHT (1 μM) for 72 hours. MCF7-EV cells were processed in parallel, as a negative control. […] For the data in these drawings, * indicates p<0.05.
(§5) Annexin-V analysis: Cell death was quantified by flow cytometry using propidium iodide (PI) and Annexin V-FITC (20). Briefly, 1.5×10^5 all the transfected cells were plated in 6 multi-well plate in complete media supplemented with 10% HiFBS. The next day, cells were treated with 1 μM of 4-OH-Tamoxifen (4-OHT) for 48 h and 72 h. Vehicle alone (DMSO) for control cells were processed in parallel. After 48 hours, cells were harvested and washed in cold phosphate-buffered saline (PBS). […] Cells were then analyzed by flow cytometry using a PE Texas Red signal detector for PI staining and a FITC signal detector to detect Annexin V binding. 30,000 events were recorded by FACS using Fortessa BD. […]

[5] = system: transfected MCF7 cell lines; assay: Annexin-V analysis (apoptosis, FACS); format: cell-based, human; conditions: 1 μM for 72 hours
Excerpt: as §3, §4, §5

[6] = system: other MCF7 cell lines (ESR1 WT, Y537N, ErbB2, EV); conditions: 4-OHT 1 μM, 5 days
Procedure: To directly determine the validity of our model system, MCF7-Y537S cells were cultured for 5 days in the presence of Tamoxifen (1 μM) to assess its effect on cell viability. […] MCF7 cells were stably-transduced with either ESR1 (WT, Y537S, or Y537N) or ErbB2 (HER2), to genetically create a clinically relevant model of endocrine therapy resistance. Vector alone control MCF7 cells were generated in parallel (empty vector; EV; p-EV-105-puroR), as a negative control. […] The SRB assay was performed as a measure of cell viability and the experiment was carried out for 5 days.
Sulfo-rhodamine B (SRB) assay: SRB measures total biomass by staining cellular proteins.

SMILES: CC/C(=C(\c1ccc(O)cc1)c1ccc(OCCN(C)C)cc1)c1ccccc1 [4-OHT, 4-OH-Tamoxifen]
- cell viability (SRB survival) (MCF7-Y537S cells [1]): clearly show resistance
- mammosphere formation (MCF7-Y537S cells [2]): remain largely unaffected
- mammosphere formation efficiency (MFE) [3]: inhibited mammosphere formation efficiency
- pro-apoptotic effect (annexin V levels) (MCF7-Y537S cells [4]): specifically resistant to the pro-apoptotic effects
- annexin V levels [5]: increased in all transfected cell lines
- cell viability (SRB survival) [6]: significant inhibitory effects
